Assays:
Assay in all cases: relative viability (nuclei count vs DMSO), 5 days (fraction); higher = more cells survive
[1] = compound: O=C(O)C(Cc1ccccc1[N+](=O)[O-])=NNc1nc(-c2ccc(Cl)c(Cl)c2)cs1 (mixture of isomers) [4EGI-1] + O=C(CCCCCCC(=O)Nc1ccccc1)NO [Vorinostat] (partner 1 µM)
Summary of the method: (§1)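 Values are medians from duplicate plates. Each reflects relative viability, defined as the nuclei count of treated wells over that of vehicle wells. Lung cancer cell lines in 1536-well plates were pin-tool dosed one day after seeding with one drug alone or with a fixed anchor-drug dose plus five library-drug doses (not always all listed) in √10 steps, then fixed, stained and imaged at 4× after 5 days.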

[2] = compound: CN1CCN(CC1)C2=CC(=C(C=C2)NC3=NC=C4C(=N3)N(C5=CC=CC=C5C(=O)N4C)C)OC [XMD8-85] + C[C@@H](Oc1cc(-c2cnn(C3CCNCC3)c2)cnc1N)c1c(Cl)ccc(F)c1Cl [Crizotinib] (partner 1 µM)
Summary of the method: as §1

[3] = compound: O=C(O)C(Cc1ccccc1[N+](=O)[O-])=NNc1nc(-c2ccc(Cl)c(Cl)c2)cs1 (mixture of isomers) [4EGI-1] + CC(C)C[C@H](NC(=O)[C@H](Cc1ccccc1)NC(=O)c1cnccn1)B(O)O [Bortezomib] (partner 0.002 µM)
Summary of the method: as §1

[4] = compound: CN1CCN(CC1)C2=CC(=C(C=C2)NC3=NC=C4C(=N3)N(C5=CC=CC=C5C(=O)N4C)C)OC [XMD8-85] + CC(=O)c1c(C)c2cnc(Nc3ccc(N4CCNCC4)cn3)nc2n(C2CCCC2)c1=O [Palbociclib] (partner 0.5 µM)
Summary of the method: as §1

Cell Line | relative viability ([1]; first compound 0.5 µM) | relative viability ([1]; first compound 5 µM) | relative viability ([1]; first compound 15.81 µM) | relative viability ([1]; first compound 50 µM) | relative viability ([2]; first compound 0.08 µM) | relative viability ([2]; first compound 0.253 µM) | relative viability ([2]; first compound 0.8 µM) | relative viability ([2]; first compound 2.53 µM) | relative viability ([2]; first compound 8 µM) | relative viability ([3]; first compound 0.5 µM) | relative viability ([3]; first compound 5 µM) | relative viability ([3]; first compound 50 µM) | relative viability ([4]; first compound 0.08 µM) | relative viability ([4]; first compound 0.253 µM) | relative viability ([4]; first compound 0.8 µM) | relative viability ([4]; first compound 2.53 µM) | relative viability ([4]; first compound 8 µM) | relative viability ([1]; first compound 1.581 µM) | relative viability ([3]; first compound 1.581 µM) | relative viability ([3]; first compound 15.81 µM)
PC-14 | 0.865 | 0.824 | 0.0883 | 0.0654 | 0.867 | 0.874 | 0.834 | 0.972 | 0.722 | 1.06 | 0.839 | 0.859 | 0.552 | 0.44 | 0.596 | 0.404 | 0.167 |  |  | 
NCI-H520 | 0.877 | 0.887 | 0.773 | 0.153 | 0.796 | 0.572 | 0.914 | 0.673 | 0.324 | 0.838 | 0.999 | 0.108 | 0.181 | 0.211 | 0.199 | 0.221 | 0.196 | 0.73 | 0.521 | 0.536
NCI-H2342 | 0.765 | 0.833 | 0.835 | 0.712 |  |  |  |  |  |  |  |  | 0.445 | 0.561 | 0.503 | 0.544 | 0.533 | 0.664 |  | 
NCI-H3122 | 1.04 | 1.03 | 1.11 | 0.773 | 0.261 | 0.258 | 0.274 | 0.329 | 0.331 | 1.07 | 0.918 | 0.352 | 0.188 | 0.192 | 0.218 | 0.186 | 0.215 | 1.11 | 0.975 | 1.06
HCC-78 | 0.579 | 0.435 | 0.443 | 0.451 | 0.363 | 0.364 | 0.304 | 0.37 | 0.295 | 0.618 | 0.513 | 0.399 | 0.544 | 0.459 | 0.564 | 0.503 | 0.435 |  | 0.466 | 0.432
SW 1573 | 1.09 | 0.48 | 0.455 | 0.164 | 0.817 | 0.705 | 0.822 | 0.867 | 0.456 | 1.4 | 0.972 | 0.822 |  | 0.387 | 0.431 | 0.365 | 0.192 | 0.787 | 1.06 | 0.948
RERF-LC-KJ | 0.796 | 0.739 | 0.58 | 0.428 | 0.881 | 0.751 | 0.807 | 0.817 | 0.658 | 1.09 | 1.07 | 0.931 | 1.09 | 1.13 | 1.18 | 1.23 | 0.768 | 0.434 |  | 0.847
SK-MES-1 | 1.09 | 1.1 | 0.728 | 0.228 | 0.964 | 1.03 | 0.94 | 0.923 | 0.61 |  |  |  | 0.342 | 0.351 | 0.31 |  | 0.248 | 0.938 |  | 
NCI-H1993 | 1.04 | 0.778 | 0.524 | 0.349 | 0.783 | 0.77 | 0.869 | 0.944 | 0.64 | 1.19 | 0.988 | 0.516 | 0.564 | 0.595 | 0.612 | 0.692 | 0.61 | 0.678 | 0.899 | 0.689
NCI-H1915 | 0.536 | 0.599 | 0.542 | 0.387 | 1.06 | 0.909 | 0.943 | 0.998 | 0.882 | 1 | 1.09 | 0.687 | 0.721 | 0.529 | 0.537 | 0.549 | 0.371 | 0.36 | 0.693 | 1.01
NCI-H1650 | 0.637 | 0.649 | 0.356 | 0.157 | 1.01 | 0.773 | 1.12 | 0.715 | 0.256 | 0.197 | 0.219 | 0.189 | 0.296 | 0.317 | 0.318 | 0.353 | 0.193 |  |  | 0.216
HCC-44 | 1.06 | 0.988 | 0.916 | 0.566 | 0.795 | 0.769 | 0.821 | 0.802 | 0.301 | 0.924 | 0.877 | 0.235 | 0.993 | 1.06 | 1.08 | 0.993 | 0.946 | 0.872 | 0.637 | 0.753
NCI-H2170 | 0.936 | 0.842 | 0.699 | 0.585 | 1.18 | 1.01 | 1.27 | 1.28 | 0.966 |  |  |  | 0.38 | 0.374 | 0.436 | 0.383 | 0.332 | 0.749 |  | 
NCI-H1975 | 0.79 | 0.754 | 0.7 | 0.357 | 1.08 | 0.827 | 1.07 | 0.937 | 0.352 | 0.475 | 0.399 | 0.348 | 0.587 | 0.511 | 0.524 | 0.651 | 0.296 | 0.679 | 0.393 | 0.36
HCC-827 | 0.785 | 0.902 |  | 0.274 |  | 0.919 | 0.942 | 0.944 | 0.856 | 0.991 | 1.02 | 0.519 | 0.505 | 0.472 | 0.424 | 0.505 | 0.467 | 0.698 | 0.853 | 0.267
NCI-H2347 | 0.724 | 0.689 | 0.589 | 0.36 | 0.696 | 0.785 | 0.749 | 0.609 | 0.614 | 1.06 | 0.992 | 0.886 | 0.523 | 0.457 | 0.395 | 0.456 | 0.352 | 0.59 | 0.835 | 1.08
NCI-H1437 | 0.975 | 0.776 | 0.418 | 0.206 | 0.76 | 0.923 | 1.14 | 0.856 | 0.491 | 0.604 | 0.442 | 0.119 | 0.295 | 0.311 | 0.289 | 0.309 | 0.203 | 0.805 | 0.632 | 0.187

— the supplement of paper PMC10307832
